Source: patent US10597388B2, “Pyridazinone herbicides” (FMC CORPORATION, priority 2014, dated 2020)

How the values were obtained:
Experiment in all cases: Test D controlled growth environment herbicide test, pre- and postemergence
Type in all cases: in vivo
[1] = tested on: oat, wild (wild oat, Avena fatua)
Outline: (§1)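 Pre-emergence: seeds sown in silt loam soil were sprayed with compound in a non-phytotoxic solvent mix containing surfactant. Post-emergence: plants at 2 to 18 cm (1- to 4-leaf stage) in peat moss/vermiculite medium got the same formulation. Visual 0–100 rating versus controls after 14 to 21 d.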

[2] = tested on: bromegrass, downy (downy bromegrass, Bromus tectorum)
Outline: as §1

[3] = tested on: lambsquarters (Chenopodium album)
Outline: as §1

[4] = tested on: oilseed rape (Brassica napus)
Outline: as §1

[5] = tested on: speedwell (bird's-eye speedwell, Veronica persica)
Outline: as §1

[6] = tested on: windgrass (Apera spica-venti)
Outline: as §1

[7] = tested on: mustard, wild (wild mustard, Sinapis arvensis)
Outline: as §1

[8] = tested on: wheat, spring (spring wheat, Triticum aestivum)
Outline: as §1

[9] = tested on: barley, spring (spring barley, Hordeum vulgare)
Outline: as §1

[10] = tested on: deadnettle (henbit deadnettle, Lamium amplexicaule)
Outline: as §1

[11] = tested on: radish, wild (wild radish, Raphanus raphanistrum)
Outline: as §1

[12] = tested on: field violet (Viola arvensis)
Outline: as §1

[13] = tested on: chamomile (scentless chamomile, Matricaria inodora)
Outline: as §1

[14] = Postemergence, 31 g ai/ha, scale 0 to 100 (0 no effect, 100 complete control)
[15] = Postemergence, 125 g ai/ha, visual rating on scale 0 (no effect) to 100 (complete control), 14 to 21 d
[16] = Postemergence, 250 g ai/ha, scale 0 to 100 (0 no effect, 100 complete control)
[17] = Preemergence, 125 g ai/ha, scale 0 to 100 (0 no effect, 100 complete control)
[18] = Preemergence, 250 g ai/ha, scale 0 to 100 (0 no effect, 100 complete control)
[19] = postemergence, 62 g ai/ha, scale 0 to 100, 0 no effect, 100 complete control
[20] = Preemergence, 62 g ai/ha, scale 0 to 100 (0 no effect, 100 complete control)

`CC(=O)Oc1c(C)nn(C)c(=O)c1-c1c(C)cc(C)c2ccccc12` [Compound 153] was tested, and the “Oat, Wild plant response rating” value [1, 14] was 85, the “Plant response rating, Oat, Wild” value [1, 15] was 90 and the “Plant response rating, Oat, Wild” value [1, 16] was 98. The “Plant response rating (scale of 0 to 100), Oat, Wild” value ([1]; Preemergence, 31 g ai/ha) was 80, the “Plant response rating (scale of 0 to 100), Oat, Wild” value ([1]; Preemergence, 62 g ai/ha) was 95 and the “Plant response rating, Oat, Wild” value [1, 17] was 98. For the same compound, the “Plant response rating, Oat, Wild” value [1, 18] was 98, the “Plant response rating, Oat, Wild” value [1, 19] was 85 and the “Bromegrass, Downy plant response rating” value [2, 14] was 25. The “Plant response rating, Bromegrass, Downy” value [2, 15] was 65, the “Plant response rating, Bromegrass, Downy” value [2, 16] was 70 and the “Plant response rating (scale of 0 to 100), Bromegrass, Downy” value ([2]; Preemergence, 31 g ai/ha) was 75. The “Plant response rating, Bromegrass, Downy” value [2, 20] was 75, the “Plant response rating, Bromegrass, Downy” value [2, 17] was 85 and the “Plant response rating, Bromegrass, Downy” value [2, 18] was 95. The “Plant response rating, Bromegrass, Downy” value [2, 19] was 35, the “Lambsquarters plant response rating” value [3, 14] was 75 and the “Plant response rating, Lambsquarters” value [3, 15] was 65. The “Plant response rating, Lambsquarters” value [3, 16] was 75, the “Plant response rating (scale of 0 to 100), Lambsquarters” value ([3]; Preemergence, 31 g ai/ha) was 70 and the “Plant response rating (scale of 0 to 100), Lambsquarters” value ([3]; Preemergence, 62 g ai/ha) was 85. For the same compound, the “Plant response rating, Lambsquarters” value [3, 17] was 100, the “Plant response rating, Lambsquarters” value [3, 18] was 100 and the “Plant response rating, Lambsquarters” value [3, 19] was 65. The “Oilseed Rape plant response rating” value [4, 14] was 70, the “Plant response rating, Oilseed Rape” value [4, 15] was 85 and the “Plant response rating, Oilseed Rape” value [4, 16] was 98. For the same compound, the “Plant response rating (scale of 0 to 100), Oilseed Rape” value ([4]; Preemergence, 31 g ai/ha) was 75, the “Plant response rating (scale of 0 to 100), Oilseed Rape” value ([4]; Preemergence, 62 g ai/ha) was 85 and the “Plant response rating, Oilseed Rape” value [4, 17] was 90. For the same compound, the “Plant response rating, Oilseed Rape” value [4, 18] was 100, the “Plant response rating, Oilseed Rape” value [4, 19] was 85 and the “Speedwell plant response rating” value [5, 14] was 75. For the same compound, the “Plant response rating, Speedwell” value [5, 15] was 90, the “Plant response rating, Speedwell” value [5, 16] was 100 and the “Plant response rating (scale of 0 to 100), Speedwell” value ([5]; Preemergence, 31 g ai/ha) was 100. For the same compound, the “Plant response rating (scale of 0 to 100), Speedwell” value ([5]; Preemergence, 62 g ai/ha) was 100, the “Plant response rating, Speedwell” value [5, 17] was 100 and the “Plant response rating, Speedwell” value [5, 18] was 100. For the same compound, the “Plant response rating, Speedwell” value [5, 19] was 75, the “Windgrass plant response rating” value [6, 14] was 25 and the “Plant response rating, Windgrass” value [6, 15] was 65. For the same compound, the “Plant response rating, Windgrass” value [6, 16] was 75, the “Plant response rating (scale of 0 to 100), Windgrass” value ([6]; Preemergence, 31 g ai/ha) was 75 and the “Plant response rating (scale of 0 to 100), Windgrass” value ([6]; Preemergence, 62 g ai/ha) was 80. For the same compound, the “Plant response rating, Windgrass” value [6, 17] was 80, the “Plant response rating, Windgrass” value [6, 18] was 95 and the “Plant response rating, Windgrass” value [6, 19] was 30. The “Mustard, Wild plant response rating” value [7, 14] was 98, the “Plant response rating, Mustard, Wild” value [7, 15] was 100 and the “Plant response rating, Mustard, Wild” value [7, 16] was 100. The “Plant response rating (scale of 0 to 100), Mustard, Wild” value ([7]; Preemergence, 31 g ai/ha) was 100, the “Plant response rating (scale of 0 to 100), Mustard, Wild” value ([7]; Preemergence, 62 g ai/ha) was 100 and the “Plant response rating, Mustard, Wild” value [7, 17] was 100. The “Plant response rating, Mustard, Wild” value [7, 18] was 100, the “Plant response rating, Mustard, Wild” value [7, 19] was 98 and the “Wheat, Spring plant response rating” value [8, 14] was 20. The “Plant response rating, Wheat, Spring” value [8, 15] was 40, the “Plant response rating, Wheat, Spring” value [8, 16] was 50 and the “Plant response rating (scale of 0 to 100), Wheat, Spring” value ([8]; Preemergence, 31 g ai/ha) was 25. The “Plant response rating (scale of 0 to 100), Wheat, Spring” value ([8]; Preemergence, 62 g ai/ha) was 45, the “Plant response rating, Wheat, Spring” value [8, 17] was 70 and the “Plant response rating, Wheat, Spring” value [8, 18] was 85. The “Plant response rating, Wheat, Spring” value [8, 19] was 30, the “Barley, Spring plant response rating” value [9, 14] was 5 and the “Plant response rating, Barley, Spring” value [9, 15] was 15. For the same compound, the “Plant response rating, Barley, Spring” value [9, 16] was 30, the “Plant response rating (scale of 0 to 100), Barley, Spring” value ([9]; Preemergence, 31 g ai/ha) was 0 and the “Plant response rating, Barley, Spring” value [9, 20] was 0. For the same compound, the “Plant response rating, Barley, Spring” value [9, 17] was 25, the “Plant response rating, Barley, Spring” value [9, 18] was 40 and the “Plant response rating, Barley, Spring” value [9, 19] was 5. For the same compound, the “Deadnettle plant response rating” value [10, 14] was 70, the “Plant response rating, Deadnettle” value [10, 15] was 80 and the “Plant response rating, Deadnettle” value [10, 16] was 90. For the same compound, the “Plant response rating (scale of 0 to 100), Deadnettle” value ([10]; Preemergence, 31 g ai/ha) was 98, the “Plant response rating (scale of 0 to 100), Deadnettle” value ([10]; Preemergence, 62 g ai/ha) was 100 and the “Plant response rating, Deadnettle” value [10, 17] was 100. For the same compound, the “Plant response rating, Deadnettle” value [10, 18] was 100, the “Plant response rating, Deadnettle” value [10, 19] was 75 and the “Radish, Wild plant response rating” value [11, 14] was 80. For the same compound, the “Plant response rating, Radish, Wild” value [11, 15] was 100, the “Plant response rating, Radish, Wild” value [11, 16] was 100 and the “Plant response rating (scale of 0 to 100), Radish, Wild” value ([11]; Preemergence, 31 g ai/ha) was 80. The “Plant response rating (scale of 0 to 100), Radish, Wild” value ([11]; Preemergence, 62 g ai/ha) was 98, the “Plant response rating, Radish, Wild” value [11, 17] was 98 and the “Plant response rating, Radish, Wild” value [11, 18] was 100. The “Plant response rating, Radish, Wild” value [11, 19] was 85, the “Field Violet plant response rating” value [12, 14] was 85 and the “Plant response rating, Field Violet” value [12, 15] was 95. For the same compound, the “Plant response rating, Field Violet” value [12, 16] was 100, the “Plant response rating (scale of 0 to 100), Field Violet” value ([12]; Preemergence, 31 g ai/ha) was 100 and the “Plant response rating (scale of 0 to 100), Field Violet” value ([12]; Preemergence, 62 g ai/ha) was 100. The “Plant response rating, Field Violet” value [12, 17] was 100, the “Plant response rating, Field Violet” value [12, 18] was 100 and the “Plant response rating, Field Violet” value [12, 19] was 90. The “Chamomile plant response rating” value [13, 14] was 70, the “Plant response rating, Chamomile” value [13, 15] was 100 and the “Plant response rating, Chamomile” value [13, 16] was 100. The “Plant response rating (scale of 0 to 100), Chamomile” value ([13]; Preemergence, 31 g ai/ha) was 100, the “Plant response rating (scale of 0 to 100), Chamomile” value ([13]; Preemergence, 62 g ai/ha) was 100 and the “Plant response rating, Chamomile” value [13, 17] was 100. The “Plant response rating, Chamomile” value [13, 18] was 100 and the “Plant response rating, Chamomile” value [13, 19] was 95.
